{
  "source": "paper PMC5770468",
  "about": "“Cardiac glycoside/aglycones inhibit HIV-1 gene expression by a mechanism requiring MEK1/2-ERK1/2 signaling” (Scientific Reports, 2018)",
  "key": {"[1]": {"test_system": "HIV-1 (Gag) gene expression", "conditions": "HeLa rtTA-HIV-ΔMls cells; read-out: IC90, HIV-1 (Gag) gene expression (digoxin, published); cited from earlier work"}, "HeLa rtTA-HIV-ΔMls cells": {"test_system": "HeLa rtTA-HIV-ΔMls cells", "assay": "In vitro therapeutic index (CC20/IC50) in HeLa rtTA-HIV-ΔMls cells", "assay_type": "cell-based, human", "text": "Without median toxic dose (TD50) and half-maximal effective concentration (EC50) data available to calculate TIs (in vivo) from HIV patients treated with CSs, we determined the following TIs for each cell type treated with a CS (summarized in Supplementary Table S1): in vitro TIs from HeLa rtTA-HIV-ΔMls cells using CC20/IC50 (instead of CC50/IC50), in vitro TIs from 24ST1NLESG cells using CC50/IC50, and ex vivo TIs from HIV-infected PBMCs using CC50/IC50 (at day 14 of culture approximated from available cell viability trends for CC50s of Supplementary Fig. S13 and inferred near maximal IC50s).\nSupplementary Table S1. Comparison of the in vitro (IVTI) and ex vivo therapeutic indices (EVTIs) of CSs and their impact on the expression of essential HIV-1 proteins.\nNotes: data for CC20, CC50, and IC50s for each drug/compound were estimated from dose response curves in Figures 1-2, Supplementary Table S1, Supplementary Figures S2, S5, and S13, and Wong et al.\n\">\" means the estimate has not been accurately determined but is greater than the highest concentration […]\n\"( )\" indicates preliminary data that was not shown. aCC20 instead of CC50 was estimated from dose response curves and used for calculation of IVTIs. bCells were treated at ~IC90of a CS.\n(1 picture or pasted object on this page, not shown here)"}, "[2]": {"test_system": "nascent protein synthesis", "assay_type": "cell-based, human", "conditions": "220 nM", "method": "To monitor HIV-1 gene expression or replication, Gag release into cell culture supernatants were assayed by ELISA using a p24^CA antigen capture assay kit (AIDS & Cancer Virus Program, NCI-Frederick, Frederick, MD USA). Media harvested from HIV clinical isolates were diluted ~10 fold (or as necessary) prior to performing this assay. For analysis of HIV-1 and SR protein expression (and phosphorylation states with calf intestinal alkaline phosphatase treatments), cells were lysed and analyzed by western blot as previously outlined. Phosphatase inhibitors (e.g. 10 mM sodium fluoride, 2 mM sodium orthovanadate) were added to solutions requiring phospho protein analyses. […] Activation of MAPKs was determined by western blot quantitation and calculation of phospho/total protein levels. […] Stain-Free™ gels were casted and proteins were detected as described in 10% TGX-Stain-Free FastCast Acrylamide Kit from Bio-Rad (#161-0183). […] In representative gel/blot sets, samples were electrophoresed from the same experiment as controls, resolved simultaneously on identically cast gel(s), transferred to same PVDF (by either wet electrophoretic or by Bio-Rad Trans-Blot® Turbo Transfer System), and detected at same time. […] Cells were subsequently washed, whole cell lysates prepared, and proteins quantified by western blot using an anti-puromycin antibody (EMD Millipore, #anti-12D10) as described above. […]"}},
  "data": [
    {"smiles": "C[C@H]1O[C@@H](O[C@H]2[C@@H](O)C[C@H](O[C@H]3[C@@H](O)C[C@H](O[C@H]4CC[C@@]5(C)[C@H](CC[C@@H]6[C@@H]5C[C@@H](O)[C@]5(C)[C@@H](C7=CC(=O)OC7)CC[C@]65O)C4)O[C@@H]3C)O[C@@H]2C)C[C@H](O)[C@@H]1O", "note": "[Digoxin]", "values": [
      {"measurement": "IC90", "setting": "[1]", "value": 100, "unit": "nM"}
    ]},
    {"smiles": "C[C@@H]1O[C@@H](O[C@H]2C[C@@H](O)[C@]3(CO)[C@H]4[C@H](O)C[C@]5(C)[C@@H](C6=CC(=O)OC6)CC[C@]5(O)[C@@H]4CC[C@]3(O)C2)[C@H](O)[C@H](O)[C@H]1O", "note": "[Ouabain]", "values": [
      {"measurement": "better in vitro TI than digoxin", "setting": "HeLa rtTA-HIV-ΔMls cells", "value": 1.2, "unit": "fold"}
    ]},
    {"smiles": "COc1ccc(C[C@H]2NC[C@H](O)[C@H]2OC(C)=O)cc1", "note": "[anisomycin, Anisomycin]", "values": [
      {"measurement": "effect on nascent protein synthesis", "setting": "[2]", "value": "little to no effect"}
    ]}
  ]
}
